The results in this text go back to ChEMBL document CHEMBL1147941, “Novel morpholin-3-one derivatives induced apoptosis and elevated the level of P53 and Fas in A549 lung cancer cells” (Bioorg Med Chem, 2007).

A word on the IC50: it is the concentration at which inhibition is half-maximal. The low end stands for greater potency, the high end for weaker potency.

SMILES strings stand for the structures. In brackets after ≈: the same amount, converted by molar mass. Activity calls are given as the source filed them. No cut-off for these calls is given here.

For experiment [1], the system named is A549. Kind of experiment: Cell cycle arrest in A549 cells assessed as accumulation at S phase at 40 ug/ml after 48 hrs. Format: functional, Homo sapiens.
For experiment [2], the system named is A549. The experiment is described as follows: Increase in Fas protein level in A549 cells at 40 ug/ml after 48 hrs relative to control. Format: functional, Homo sapiens.
The test system of experiment [3] is A549. Kind of experiment: Cell cycle arrest in A549 cells assessed as accumulation at G1 phase at 40 ug/ml after 48 hrs. It is filed as functional, Homo sapiens.
The test system of experiment [4] is A549. The experiment is described as follows: Increase in P53 protein level in A549 cells at 40 ug/ml after 48 hrs relative to control. Format: functional, Homo sapiens.
Experiment [5] has as its system A549. The experiment is described as follows: Induction of apoptosis in A549 cells assessed as DNA fragmentation at 40 ug/ml after 48 hrs by acridine orange assay. It is filed as functional, cell-based. The conditions noted are these: Homo sapiens.
Experiment [6] concerns A549. Kind of experiment: Antiproliferative activity against human A549 cells after 48 hrs by MTT assay. The conditions noted are these: A549, 48 h. Format: functional, cell-based. In general terms: Formazan colour is commonly taken as a measure of viable cells.
For experiment [7], the system named is A549. The experiment is described as follows: Cell cycle arrest in A549 cells assessed as accumulation at G2/M phase at 40 ug/ml after 48 hrs. It is filed as functional, Homo sapiens.
Experiment [8] has as its system A549. The experiment is described as follows: Effect on morphology in A549 cells assessed as formation of apoptotic bodies at 40 ug/ml after 48 hrs. It is filed as functional, cell-based. The conditions noted are these: Homo sapiens.

For the compound `COc1ccc(N2CC(COc3ccc(Cl)cc3)OCC2=O)cc1` (stereo not given), the Activity turned out to be 10.99% in experiment [1], 23.45% in experiment [2], 79.44% in experiment [3] and 22.41% in experiment [4]. Besides, the outcome in experiment [5] was Active. Also, the IC50 in experiment [6] came out at 22.9 µg/mL (≈ 65.9 µM).
For the compound `O=C1COC(COc2ccc([N+](=O)[O-])cc2)CN1c1ccc(Cl)cc1` (stereo not given), the Activity in experiment [1] stood at 14.82%; in experiment [2], 21.53%; in experiment [3] it was 63.25%; in experiment [4], 23.98%; in experiment [7], 21.93%. Also, the outcome in experiment [5] was Active. In experiment [6], the IC50 is 38 µg/mL (≈ 105 µM).
As to `O=C1COC(COc2ccc([N+](=O)[O-])cc2)CN1c1ccccc1` (stereo not given), the Activity in experiment [2] stood at 40.97%; in experiment [3], 73.3%; in experiment [4], 33.73%; in experiment [7], 18.64%. In addition, the result in experiment [8] and in experiment [5] was Active. In experiment [6], this compound yielded an IC50 of 16.6 µg/mL (≈ 50.6 µM).
